Laboratory results: US20080063642A1, “Methods of using (+)-1,4-dihydro-7-[(3S,4S)-3-methoxy-4-(methylamino)-1-pyrrolidinyl]-4-oxo-1-(2-thiazolyl)-1,8-naphthyridine-3-carboxylic acid for treatment of certain hematologic disorders” (priority 2006, published 2008)

Columns and labels:
[1] = test system: peripheral neutrophils, white blood cells, platelets; assay: Combination dosing SNS-595 and Ara-C (Example 5): peripheral cytology; format: in vivo, nu/nu mice
Description: At various time points described in Table 5, mice were euthanized by CO2 asphyxiation in accordance to Institutional Animal Care and Use Committee (IACUC) guidelines. Blood was collected through cardiac tap and transferred to EDTA tubes. The analysis of murine blood CBC and differential counts for samples in these tubes was conducted (at Quality Clinical Labs, Moutainview). Statistical significance was determined by one-tailed student t-test, using Welch's correction for unequal variances.

femoral bone marrow = assay: Combination dosing SNS-595 and Ara-C (Example 5): femoral bone marrow cellularity; format: in vivo, nu/nu mice
From the text: Femurs were harvested for histological evaluation. The femur was placed in Streck fixative, paraffin embedded, sectioned, transferred to slides, and H&E stained (at BioPathology Sciences). Immunohistochemical slides were processed and analyzed for percent cellularity of intact bone marrow.

[2] = Combination dosing SNS-595 and Ara-C (Example 5): body weight changes
Description: The effects of dosing were studied on changes in body weight, peripheral cytology, and femoral bone marrow cellularity over time as described below.
Before beginning the study, all animals were allowed to acclimatize for 3 days from shipping related stress and the health of the mice was assessed daily by observation. Purified water (reverse osmosis) and irradiated food (PicoLab Rodent Diet 20, #5053; Dean's Animal Feeds, San Carlos, Calif.) were provided ad libitum, and the animals were kept on a 12 hour light and dark cycle.

in vivo = conditions: CD-1, mouse
bone marrow = assay: Monotherapy and combination with Ara-C (Example 6): bone marrow total cellularity; format: in vivo, Female CD-1 mice; conditions: for Total Cellularity (Avg) Exp #1: two days after completion of treatment
Description: Blood was analyzed at Quality Control Labs (Mountain View, Calif.) for complete blood count and differential count. Bone marrow smears from femurs on Day 6 and Day 12 were prepared and geimsa stained for differential counts. Femurs were also placed in Streck fixative, processed, sectioned and H&E stained. Femur and bone marrow smears were analyzed at BioPathology Sciences (South San Francisco, Calif.) for total cellularity and differential count. […] The compounds were administered on Day 0 and Day 4.

[3] = Ara-C 20, 40 and 60 mg/kg tid q4d ×2
[4] = Group 5: Ara-C 20 mg/kg SC tid q4d × 2
[5] = Group 6: Ara-C 40 mg/kg SC tid q4d × 2
[6] = Group 7: Ara-C 60 mg/kg SC tid q4d × 2

With `Nc1ccn([C@@H]2O[C@H](CO)[C@@H](O)[C@@H]2O)c(=O)n1` [Ara-C, cytarabine] the “day of nadir of number of neutrophils” value ([1]; Ara-C 20 mg/kg tid q4d ×2) was 6 days, the “day of nadir of platelets” value ([1]; Ara-C 40 mg/kg tid q4d ×2) was 8 days and the “number of white blood cells versus vehicle group” value ([1]; Ara-C 60 mg/kg, day 8) was “significantly lower than the vehicle group”. The “circulating white blood cells, dose response” value [1, 3] was “dose-dependent reduction”, the “day of nadir of platelets” value ([1]; Ara-C 20 and 60 mg/kg tid q4d ×2) was 6 days and the “day of nadir of number of neutrophils” value ([1]; Ara-C 40 and 60 mg/kg tid q4d ×2) was 8 days. The “day by which neutrophils returned to normal levels” value ([1]; Ara-C all dose levels) was ≤ 12 days, the “day by which platelets returned to normal levels” value ([1]; Ara-C all dose levels) was ≤ 12 days and the “recovery of white blood cells” value ([1]; Ara-C all dose levels) was “failed to return to normal levels by day 18”. For the same molecule, the “number of platelets versus vehicle group” value ([1]; Ara-C all dose levels, day 6 and day 8) was “significantly lower than the vehicle group”, the “number of neutrophils versus vehicle group” value ([1]; Ara-C all dose levels, day 8) was “significantly lower than the vehicle group” and the reduction in cellularity (femoral bone marrow; Ara-C 20 mg/kg SC three times a day, single agent) was 12%. For the same molecule, the “bone marrow cellularity, dose response” value (femoral bone marrow; Ara-C single agent 20, 40, 60 mg/kg) was “No dose dependent reduction”, the “total cellularity, femur cross section of representative animal” value (“total cellularity, femur cross section” for short) (femoral bone marrow; Day 6, Ara-C 20 mg/kg tid q4d ×2 SC, Animal #83) was 90% and the “total cellularity, femur cross section” value (femoral bone marrow; Day 6, Ara-C 40 mg/kg tid q4d ×2 SC, Animal #103) was 90%. For the same molecule, the “total cellularity, femur cross section” value (femoral bone marrow; Day 6, Ara-C 60 mg/kg tid q4d ×2 SC, Animal #122) was 50%, the “total cellularity, femur cross section” value (femoral bone marrow; Day 12, Ara-C 60 mg/kg tid q4d ×2 SC, Animal #134) was 50% and the “Average Total Cellularity Day 6” value (femoral bone marrow; [4]) was 88%. For the same molecule, the “Average Total Cellularity Day 6” value (femoral bone marrow; [5]) was 90%, the “Average Total Cellularity Day 6” value (femoral bone marrow; [6]) was 58% and the “Average Total Cellularity Day 12” value (femoral bone marrow; [6]) was 99%. The “day of maximum body weight loss” value [2, 3] was 7 days, the “maximum body weight loss” value [2, 3] was ≤ 2% and the “% of Body Wt Nadir” value [2, 4] was −0.3%. The “Day of Body Wt Nadir” value [2, 4] was 7 days, the “% of Body Wt Nadir” value [2, 5] was 0% and the “Day of Body Wt Nadir” value [2, 5] was 0 days. For the same molecule, the “% of Body Wt Nadir” value [2, 6] was −1.7%, the “Day of Body Wt Nadir” value [2, 6] was 7 days and the MTD (in vivo) was 60 mg/kg. The “Total Cellularity (Avg) Exp #2” value (bone marrow; Ara-C 20 mg/kg tid q4d ×2) was 92%, the “Total Cellularity (Avg) Exp #1” value (bone marrow; Ara-C 20 mg/kg tid q4d × 2) was 88% and the “Total Cellularity (Avg) Exp #2” value (bone marrow; Ara-C 60 mg/kg tid q4d × 2) was 54%. For the same molecule, the “Total Cellularity (Avg) Exp #1” value (bone marrow; Ara-C 60 mg/kg tid q4d × 2) was 58%.
